# Assay results from patent US20260001914A1, “MACROCYCLIC PEPTIDES TARGETING KRAS” (Merck Sharp & Dohme LLC, priority 2022, published 2026).
# *1 amine or outer side, *2 acyl side, *3 side chain or, on linkers, in order; H or OH if unused. Where a SMILES comes first, the peptide text is derived from it. Bridges are numbered along the chain shown (N, C = ends). [ ]: non-standard residue; d: D form. Ala(pyrimidin-5-yl) = N[C@@H](Cc1cncnc1)C(=O)O; NMe3Pal(6-Me) = CN[C@@H](Cc1ccc(C)nc1)C(=O)O; X36 = CN([C@@H](Cc1cnn(C)c1)C(=O)[*:2])[*:1]; X6 = O=C([C@H](Cc1cnn(C2COC2)c1)N[*:1])[*:2]; NMe3Pal(5-F) = CN[C@@H](Cc1cncc(F)c1)C(=O)O; NMePhe(4-F) = CN[C@@H](Cc1ccc(F)cc1)C(=O)O; X42 = O=C([C@H](Cc1cc(F)ncc1F)N[*:1])[*:2]; X25 = O=C([C@H](Cc1ccc(F)nc1)N[*:1])[*:2]; Lys(N3) = [N-]=[N+]=NCCCC[C@H](N)C(=O)O; X30 = O=C([C@H](Cc1ncccc1F)N[*:1])[*:2]; X21 = O=C([C@@H]1C[C@H]1CN[*:1])[*:2]; Phe(2-F) = N[C@@H](Cc1ccccc1F)C(=O)O; Abu(4,4-F2) = N[C@@H](CC(F)F)C(=O)O; NMe3Pal = CN[C@@H](Cc1cccnc1)C(=O)O; X1 = O=C(C12CC(CN[*:1])(C1)C2)[*:2]; X17 = O=C([C@H](CCCCF)N[*:1])[*:2]; NMeOrn(Me) = CNCCC[C@H](NC)C(=O)O; NMeR = CN[C@@H](CCCNC(=N)N)C(=O)O; Ala(cPr) = N[C@@H](CC1CC1)C(=O)O; NMeF = CN[C@@H](Cc1ccccc1)C(=O)O; PhLac = O=C(O)[C@@H](O)Cc1ccccc1; 3Pal = N[C@@H](Cc1cccnc1)C(=O)O; Ahp(2) = CCCCC[C@H](N)C(=O)O; Cba = N[C@@H](CC1CCC1)C(=O)O; hLeu = CC(C)CC[C@H](N)C(=O)O; αMeC = C[C@](N)(CS)C(=O)O; NMeA = CN[C@@H](C)C(=O)O; Nle = CCCC[C@H](N)C(=O)O; Pra = C#CC[C@H](N)C(=O)O
# Target: phosphorylation levels of ERK1/2 in AsPC-1 (homozygous KRAS-G12D) cells (Homo sapiens, UniProt P01116, G12D)
# Test: Cellular phospho-ERK assay in AsPC-1 cells (Alpha Screen), assay medium without fetal bovine serum;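 further: signal taken as phospho-ERK over total ERK per well, both detected in one multiplex bead assay, EC50 from four-parameter logistic fit of dose-response curves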
# Assay type: cell-based
# Conditions: phospho-ERK AlphaScreen, 18 h
# phosphorylation levels of ERK1/2 in AsPC-1 (homozygous KRAS-G12D) cells, sequence (P01116 1-186 G12D): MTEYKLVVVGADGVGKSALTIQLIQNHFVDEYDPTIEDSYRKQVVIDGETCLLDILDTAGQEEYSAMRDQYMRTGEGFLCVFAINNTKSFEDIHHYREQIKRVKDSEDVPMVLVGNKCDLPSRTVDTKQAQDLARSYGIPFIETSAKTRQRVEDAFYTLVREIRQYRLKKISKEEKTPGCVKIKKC
row,Structure (SMILES),EC50
1,"CCCC[C@@H]1NC(=O)[C@H](Cc2ccc(F)nc2)NC(=O)[C@H](C)N(C)C(=O)[C@H](Cc2ccccc2)OC(=O)C23CC(CNC(=O)[C@H](Cc4ccccc4)N(C)C(=O)[C@H](CCCC)NC(=O)[C@H](Cc4ncccc4F)NC1=O)(C2)C3 [compound 228, cyclo(FLac-NMeA-4F3Pal-Nle-2Pal6F-Nle-NMeF-amBCP)] (cyclo([NMeA][X25][Nle][X30][Nle][NMeF][X1][PhLac]))",> 50.8 µM
2,"CCCC[C@@H]1NC(=O)[C@H](Cc2ccc(F)nc2)NC(=O)[C@H](C)N(C)C(=O)[C@H](Cc2ccccc2)OC(=O)C23CC(CNC(=O)[C@H](Cc4cccnc4)N(C)C(=O)[C@H](CCCC)NC(=O)[C@H](Cc4ccccc4F)NC1=O)(C2)C3 [compound 235, cyclo(FLac-NMeA-4F3Pal-Nle-Phe2F-Nle-NMe3Pal-amBCP)] (cyclo([NMe3Pal][X1][PhLac][NMeA][X25][Nle][Phe(2-F)][Nle]))",11.8 µM
3,"CCCC[C@@H]1NC(=O)[C@H](Cc2cncnc2)NC(=O)[C@H](C)N(C)C(=O)[C@H](Cc2ccccc2)OC(=O)C23CC(CNC(=O)[C@H](Cc4ccccc4)N(C)C(=O)[C@H](CCCCF)NC(=O)[C@H](Cc4ccccc4F)NC1=O)(C2)C3 [compound 131, cyclo(FLac-NMeA-PyrimAla-Nle-Phe2F-NleF-NMeF-amBCP)] (cyclo([NMeA][Ala(pyrimidin-5-yl)][Nle][Phe(2-F)][X17][NMeF][X1][PhLac]))",2.33 µM
4,"CCCC[C@@H]1NC(=O)[C@H](Cc2ccc(C(F)(F)F)nc2)NC(=O)[C@H](CCCn2ccnc2)N(C)C(=O)[C@H](Cc2ccccc2)OC(=O)C23CC(CNC(=O)[C@H](Cc4ccccc4)N(C)C(=O)[C@H](CCCC)NC(=O)[C@H](Cc4ccccc4F)NC1=O)(C2)C3 (single isomer, unassigned) [compound 218, cyclo(FLac-NMeNvalmid-4CF33Pal-Nle-Phe2F-Nle-NMeF-amBCP)]",> 50.8 µM
5,"CCCCC[C@@H]1NC(=O)[C@H](Cc2ccc(OC)cc2)NC(=O)[C@H](CC2CCC2)NC(=O)[C@H](Cc2cc[nH]c(=O)c2)NC(=O)[C@H](CCCNC(=N)N)NC(=O)[C@H](Cc2ccccc2)NC(=O)CSC[C@@](C)(C(N)=O)NC(=O)[C@H](Cc2ccccc2)N(C)C1=O [compound 368, cyclo(F-R-SCO4Pal-cBuA-TyrOMe-Ahp-NMeF-aMeCl-ClAc)]",> 50.8 µM
6,"CCCCC[C@@H]1NC(=O)[C@H](Cc2ccc(OC)cc2)NC(=O)[C@H](CC2CCC2)NC(=O)[C@H](Cc2ccc(N3CCC[C@@H]3CN)cc2)NC(=O)[C@H](CCCNC(=N)N)NC(=O)[C@H](Cc2ccccc2)NC(=O)CSC[C@@](C)(C(N)=O)NC(=O)[C@H](Cc2ccccc2)N(C)C1=O [compound 391, cyclo(F-R~Phe4RamPyrr-cBuA-TyrOMe-Abp-NMeF-aMeCl-ClAc)]",> 50.8 µM
7,"CC(C)CC[C@@H]1NC(=O)[C@H](Cc2cnn(C3COC3)c2)NC(=O)[C@H](CC2CC2)NC(=O)[C@H](Cc2cncnc2)NC(=O)[C@H](C)N(C)C(=O)[C@H](Cc2ccccc2)OC(=O)C23CC(CNC(=O)[C@H](Cc4ccccc4)N(C)C1=O)(C2)C3 [compound 300, cyclo(FLac-NMeA-PyrimAla-cPrA-AlaPyz1Ox-hL-NMeF-amBCP)] (cyclo([Ala(cPr)][X6][hLeu][NMeF][X1][PhLac][NMeA][Ala(pyrimidin-5-yl)]))",> 50.8 µM
8,"CC(C)CC[C@@H]1NC(=O)[C@H](Cc2ccccc2F)NC(=O)[C@H](CC(F)F)NC(=O)[C@H](Cc2cncnc2)NC(=O)[C@H](C)N(C)C(=O)[C@H](Cc2ccccc2)OC(=O)C23CC(CNC(=O)[C@H](Cc4ccccc4)N(C)C1=O)(C2)C3 [compound 304, cyclo(FLac-NMeA-PyrimAla-AbuF2-Phe2F-hL-NMeF-amBCP)] (cyclo([NMeA][Ala(pyrimidin-5-yl)][Abu(4,4-F2)][Phe(2-F)][hLeu][NMeF][X1][PhLac]))",1.87 µM
9,"CCCCC[C@@H]1NC(=O)[C@H](Cc2ccc(OC)cc2)NC(=O)[C@H](CC2CCC2)NC(=O)[C@H](Cc2cccnc2)NC(=O)[C@H](CCCNC)N(C)C(=O)[C@H](Cc2ccccc2)NC(=O)CSC[C@@](C)(C(N)=O)NC(=O)[C@H](Cc2ccc(C)nc2)N(C)C1=O [compound 393, cyclo(F-NMeOrnMe-3Pal-cBuA-TyrOMe-Ahp-NMe3Pal4Me-aMeCl-ClAc)] ({CH2CO}-F[NMeOrn(Me)][3Pal][Cba]Y(Me)[Ahp(2)][NMe3Pal(6-Me)][αMeC]-NH2; thioether N-8)",> 50.8 µM
10,"CCCC[C@@H]1NC(=O)[C@H](Cc2cccnc2)NC(=O)[C@H](C)N(C)C(=O)[C@H](Cc2ccccc2)OC(=O)C23CC(CNC(=O)[C@H](Cc4cnn(C)c4)N(C)C(=O)[C@H](CCCC)NC(=O)[C@H](Cc4ccccc4F)NC1=O)(C2)C3 [compound 403, cyclo(FLac-NMeA-3Pal-Nle-Phe2F-Nle-NMeAla4PyzlMe-amBCP)] (cyclo([3Pal][Nle][Phe(2-F)][Nle][X36][X1][PhLac][NMeA]))",18.6 µM
11,"CC(C)CC[C@@H]1NC(=O)[C@H](Cc2ccccc2F)NC(=O)[C@H](CC2CC2)NC(=O)[C@H](Cc2cccnc2)NC(=O)[C@H](C)N(C)C(=O)[C@H](Cc2ccccc2)OC(=O)C23CC(CNC(=O)[C@H](Cc4cncc(F)c4)N(C)C1=O)(C2)C3 [compound 283, cyclo(FLac-NMeA-3Pal-cPrA-Phe2F-hL-NMe3Pal5F-amBCP)] (cyclo([3Pal][Ala(cPr)][Phe(2-F)][hLeu][NMe3Pal(5-F)][X1][PhLac][NMeA]))",1.27 µM
12,"CC(C)CC[C@@H]1NC(=O)[C@H](Cc2cc(F)ncc2F)NC(=O)[C@H](CC2CC2)NC(=O)[C@H](Cc2cncnc2)NC(=O)[C@H](C)N(C)C(=O)[C@H](Cc2ccccc2)OC(=O)C23CC(CNC(=O)[C@H](Cc4ccccc4)N(C)C1=O)(C2)C3 [compound 280, cyclo(FLac-NMcA-PyrimAla-cPrA-4Pal25F2-hL-NMeF-amBCP)] (cyclo([Ala(cPr)][X42][hLeu][NMeF][X1][PhLac][NMeA][Ala(pyrimidin-5-yl)]))",1.23 µM
13,"C#CC[C@@H]1NC(=O)[C@H](CC2CC2)NC(=O)[C@H](Cc2cncnc2)NC(=O)[C@H](C)N(C)C(=O)[C@H](Cc2ccccc2)OC(=O)C23CC(CNC(=O)[C@H](Cc4ccccc4)N(C)C(=O)[C@H](CCC(C)C)NC1=O)(C2)C3 [compound 286, cyclo(FLac-NMeA-PyrimAla-cPrA-Pra-hL-NMeF-amBCP)] (cyclo([Ala(cPr)][Pra][hLeu][NMeF][X1][PhLac][NMeA][Ala(pyrimidin-5-yl)]))",30.3 µM
14,"CCCC[C@@H]1NC(=O)[C@H](Cc2cccnc2)NC(=O)[C@H](CCCNC(=N)N)N(C)C(=O)[C@H](Cc2ccccc2)NC(=O)[C@@H]2C[C@H]2CNC(=O)[C@H](Cc2ccccc2)N(C)C(=O)[C@H](CCCCN=[N+]=[N-])NC(=O)[C@H](Cc2ccc(OC)cc2)NC1=O [compound 94, cyclo(F-NMeR-3Pal-Nle-TyrOMe-LysN3-NMeF-tamcPr)] (cyclo(F[NMeR][3Pal][Nle]Y(Me)[Lys(N3)][NMeF][X21]))",> 50.8 µM
15,"CCCC[C@@H]1NC(=O)[C@H](Cc2cncnc2)NC(=O)[C@H](C)N(C)C(=O)[C@H](Cc2ccccc2)OC(=O)C23CC(CNC(=O)[C@H](Cc4ccc(F)cc4)N(C)C(=O)[C@H](CCCC)NC(=O)[C@H](Cc4ccccc4F)NC1=O)(C2)C3 [compound 173, cyclo(FLac-NMeA-PyrimAla-Nle-Phe2F-Nle-NMePhe4F-amBCP)] (cyclo([NMeA][Ala(pyrimidin-5-yl)][Nle][Phe(2-F)][Nle][NMePhe(4-F)][X1][PhLac]))",0.994 µM
